In US12403114B2, “Cannabinoid acid ester compositions and uses thereof” (EPM (IP), INC., priority 2019, dated 2025):

Columns and labels:
[1] = tested on: partial meniscectomy/ACL transection rat model of surgical induced osteoarthritis and pain induced incapacitance; test: Weight bearing in rat meniscectomy model versus hyaluronate and corticosteroid, Example 6; type: in vivo
Method: Rats were allowed to acclimatize for 1 week, followed by assessment of their weight bearing preference using an incapacitance meter. Unilateral medical meniscectomy and anterior cruciate ligament […] (MMX/ACLT) surgery was performed on the right knee of a subject rat. Weight bearing preference was tested before and after surgery. After 2 weeks, treatments with both intra-articular (1) and. intra-peritoneal (6) administrations of EPM301 began in the EPM301 group. In the hyaluronate (HA) and corticosteroid (CS) groups, a single intra-articular injection was performed 2 weeks after model induction. Weight bearing preference was then assessed 4 and 7 days after the start of therapy.
Wistar Rats (HsdHan female rats 225-249 grams) were acquired from Envigo. The rats were evaluated using an incapacitance tester. They were tested pre-operation, one-week post-operation, two weeks post-operation, prior to injection, 4 and 7 days post injections.
EPM-301 was dissolved in a solution mixture of 1:1:18 EtOH:cremophor:seline to a final concentration of 3.5 mg/mL. Hyaluronic acid (Arthrease, 1% sodium hyaluronate) and Dexamethasone (kem Pharma, Venus, 72, Pol. Ind. Colom II, 08228 Terrassa, Barcelona) were acquired.
Intra-articular (i.a.) injection was carried out with 100 uL and intra-peritoneal (i.p.) injections were carried out with 150 uL. All were injected i.a. in the first day. EPM-301 was injected via i.p. administration on the first day, and for 5 additional days everyday via i.p. administration.
Student's t-test was performed at the last follow-up time to determine effect of the therapy as primary endpoint. The level of significance was 0.05 alpha. ANOVA was used to compare all time points, a post-hob analysis with the Scheffe all comparisons method was performed. Calculations were performed using the Analyze-it Excel add-on function.
The percentage of weight bearing was calculated as the amount of weight born (in grams) on the right hind limb divided by the amount of weight born on the left hind limb. This ratio was expressed as percentage weight bearing. Prior to operation the Rt/Lt weight bearing in both groups was similar. There were 4 animals in the EPM-301 treated group and 8 animals in each of the HA and CS treated groups, with a total of 20 tested subjects.

[2] = tested on: diet-induced obesity (DIO); test: Diet-induced obese (DIO) mice on high-fat diet, metabolic profile; type: in vivo, C57Bl/6 mice
Text: The experimental protocol used was approved by the Institutional Animal Care and Use Committee of the Hebrew University, which is an AAALAC International accredited institute. Male 6-week-old C57Bl/6 mice were obtained from Harlan Laboratories. Mice were maintained under a 12-h light/dark cycle and fed ad libitum. To generate diet-induced obesity, the mice were fed either a high-fat diet (HFD) (60% of calories from fat, 20% from protein, and 20% from carbohydrates; Research Diet, D12492) or a standard laboratory diet (STD, 14% fat, 24% protein, 62% carbohydrates; NIH-31 rodent diet) for 14 weeks.
HFD-fed obese mice received vehicle (1% Tween80, 4% DMSO, 95% Saline) or CBDA-ME daily for 28 days by intraperitoneal (ip) injections of 40 mg/kg. Age-matched control mice on STD received vehicle daily. Body weight and food intake were monitored daily. Total body fat and lean masses were determined by EchoMRI-100H™ (Echo Medical Systems LLC, Houston, Tex., USA). 24 h urine was collected one week before euthanasia using mouse metabolic cages (CCS2000 Chiller System, Hatteras Instruments, NC, USA). At weeks 20, mice were euthanized by a cervical dislocation under deep anesthesia, the kidneys, liver, fat pads, and muscles were removed and weighed, and samples were either snap-frozen or fixed in buffered 4% formalin. Trunk blood was collected for determining the biochemical parameters.
The experimental protocol used Metabolic profile of the mice was assessed by using the Promethion High-Definition Behavioral Phenotyping System (Sable Instruments, Inc., Las Vegas, Nev., USA). Data acquisition and instrument control were performed using MetaScreen software version 2.2.18.0, and the obtained raw data were processed using ExpeData version 1.8.4 using an analysis script detailing all aspects of data transformation. Mice with free access to food and water were subjected to a standard 12 h light/12 h dark cycle, which consisted of a 48 h acclimation period followed by 24 h of sampling. Respiratory gases were measured by using the GA-3 gas analyzer (Sable Systems, Inc., Las Vegas, Nev., USA) using a pull-mode, negative-pressure system. Air flow was measured and controlled by FR-8 (Sable Systems, Inc., Las Vegas, Nev., USA), with a set flow rate of 2000 mL/min. Water vapor was continuously measured and its dilution effect on O2 and CO2 was mathematically compensated. Effective mass was calculated by [body mass]^0.75. Fat oxidation (FO) and carbohydrate oxidation (CHO) were calculated as FO=1.69×VO2−1.69×VCO2 and CHO=4.57×VCO2−3.23×VO2 and expressed as g/d/kg^eff.Mass.
Locomotor activity was quantified by the number of disruptions of infrared XYZ beam arrays with a beam spacing of 0.25 cm in the Promethion High-Definition Behavioral Phenotyping System (Sable Instruments, Inc., Las Vegas, Nev., USA).
Mice that fasted overnight were injected with glucose (1.5 g/kg, ip), followed by a tail blood collection at 0, 15, 30, 45, 60, 90, and 120 minutes. Blood glucose levels were determined using the Elite glucometer (Bayer, Pittsburgh, Pa.).
Serum and urine levels of creatinine as well as serum levels of cholesterol, triglycerides (TG), high-density lipoprotein (HDL), low-density lipoprotein (LDL), alanine aminotransferase (ALT), aspartate aminotransferase (AST), and alkaline phosphatase (ALP) were determined using the Cobas C-111 chemistry analyzer (Roche, Switzerland) […]. Creatinine clearance was calculated using urine and serum creatinine levels (CCr mL/h=Urine creatinine mg/dL×Urine volume/Serum creatinine mg/dL×24 hrs). Fasting blood glucose was measured using the Elite glucometer (Bayer, Pittsburgh, Pa.).
Liver tissues were extracted as described previously (Tam, J., et al., Cell Metab, 2012. 16(2): p. 167-79) and its triglyceride content was determined using the EnzyChrom™ Triglyceride Assay Kit (BioAssay Systems). […]

[3] = HFD mice, 40 mg/kg/d ip for 28 days
[4] = HFD mice, 40 mg/kg/d ip for 28 days (FIG. 30)
[5] = obesity related hepatocellular injury (FIG. 28)

## C=C(C)[C@@H]1CCC(C)=CC1c1c(O)cc(CCCCC)c(C(=O)OC)c1O (stereo partly drawn) [EPM-301, cannabidiolic acid methyl ester]
[1]; following injections, EPM-301 i.a. once plus i.p. 6 days, HA and CS single i.a. injection
  Rt limb weight bearing: 99.1%
[1]; immediately prior to injection, two weeks following model induction (baseline before treatment)
  weight bearing: 56.6%
[2]; [3]
  HDL-cholesterol: without changing
  LDL-cholesterol: reduced
[2]; HFD mice, 40 mg/kg/d ip for 28 days (FIG. 23A)
  overweight (body weight): significantly reduced
[2]; HFD mice, 40 mg/kg/d ip for 28 days (FIG. 23B)
  adiposity (fat mass): significantly reduced
[2]; HFD mice, 40 mg/kg/d ip for 28 days (FIG. 23C)
  lean body mass: without affecting
[2]; HFD mice, 40 mg/kg/d ip for 28 days (FIG. 23D)
  leptin levels: reduction
[2]; HFD mice, 40 mg/kg/d ip for 28 days (FIG. 25B)
  total ambulatory activity: without changing
[2]; HFD mice, 40 mg/kg/d ip for 28 days (FIG. 26A)
  HFD-induced hypertriglyceridemia (serum triglycerides): significantly reduced
[2]; HFD mice, 40 mg/kg/d ip for 28 days (FIG. 26B)
  HFD-induced hypercholesterinemia (serum cholesterol): significantly reduced
[2]; HFD mice, 40 mg/kg/d ip for 28 days (FIG. 26C)
  ratio between HDL to LDL: Increased
[2]; HFD mice, 40 mg/kg/d ip for 28 days (FIG. 27A)
  fasting glucose levels: no change
[2]; HFD mice, 40 mg/kg/d ip for 28 days (FIG. 29A)
  HFD-induced hepatic steatosis: elevated hepatic triglyceride levels: completely attenuated
[2]; HFD mice, 40 mg/kg/d ip for 28 days (FIG. 29B)
  HFD-induced hepatic steatosis: increased fat vacuoles in the liver: completely attenuated
[2]; [4]
  HFD-induced kidney hypofiltration (creatinine clearance): completely normalized
  reduction in urine excretion-to-water consumption ratio: completely normalized
[2]; glucose 1.5 g/kg ip after overnight fast (FIG. 27B-27D)
  glucose intolerance (ip glucose tolerance test): significant reduction
[2]; indirect calorimetry, similar to lean mice on STD (FIG. 24A)
  utilization of fat (fat oxidation): downregulate
[2]; indirect calorimetry, similar to lean mice on STD (FIG. 24B)
  carbohydrate oxidation: upregulate
[2]; [5]
  serum levels of ALP: reduction
  serum levels of ALT: reduction
  serum levels of AST: reduction
[2]; similar to STD-fed animals (FIG. 25A)
  ability to run on a wheel: increased ability
